Test results as given in patent US20240342133A1, “TOPICAL STATIN FORMULATION FOR TREATMENT OF LICHEN SCLEROSUS AND PSORIASIS” (TBT PHARMA, INC, priority 2023, published 2024).

Tests used:
[1] = test system: c-myc; experiment: c-myc expression in human skin ex-vivo (chronic wound) cultures and organotype wound models; format: cell-based; conditions: samples from chronic wounds, cultured, before and after treatment; relatively short time frame
Source text: FIG. 3. C-myc expression in ex-vivo cultures before and after treatment with mevastatin. […] Samples are directly from chronic wounds, cultured, and measured c-myc levels before and after treatment with mevastatin. […] A large effect of high c-myc levels is that they cause abnormal differentiation and migration of keratinocytes.

[2] = test system: cortisol; experiment: Cortisol levels in primary human keratinocyte cultures and organotype wound healing models; format: cell-based; conditions: after treatment
Source text: FIG. 4. Cortisol levels in organotype wound models after treatment with mevastatin. […] Without cholesterol, local cortisol production should drop because cholesterol is required for cortisol synthesis. This was confirmed in primary human keratinocyte cultures and organotype wound healing models after treatment with mevastatin.

[3] = test system: MRSA; experiment: MRSA load in ex-vivo wound cultures; set-up: species or system methicillin resistant staph aureus; conditions: after 24 hours
[4] = test system: Primary human keratinocytes; experiment: Keratinocyte migration scratch test; format: cell-based; conditions: varying doses
[5] = test system: chronic wounds; experiment: Full thickness diabetic porcine wound model; format: in vivo; conditions: for increase in wound vascularity (% vascularity): versus vehicle, day 10, PD31 stain
Method: FIG. 6. Histology sections of optimal dose at day 10 show increased epithelialization and vascularization. FIG. 7. Percent vascularity at day 10 determined by PD31 stain. […] Mevastatin, simvastatin, and a combination were tested in a full thickness diabetic porcine model. FIG. 6 confirms that statins are an effective treatment of chronic wounds with a known mechanism of action. The compounds show increased epithelialization and vascularization.

[6] = full thickness diabetic porcine model, day 10

Compound | c-myc levels [1] | local cortisol production [2] | MRSA load [3] | keratinocyte migration [4] | epithelialization [5, 6] | vascularization [5, 6] | increase in wound vascularity (% vascularity) [5]
CC[C@H](C)C(=O)O[C@H]1CCC=C2C=C[C@H](C)[C@H](CC[C@@H]3C[C@@H](O)CC(=O)O3)[C@H]21 [mevastatin] | drop drastically | drop | drastic reduction | increasing migration levels with dose | increased | increased | ~3 fold
CCC(C)(C)C(=O)O[C@H]1C[C@@H](C)C=C2C=C[C@H](C)[C@H](CC[C@@H]3C[C@@H](O)CC(=O)O3)[C@H]21 [simvastatin] |  |  |  |  |  |  | ~3 fold
